Each molecule was assayed against human STING (Homo sapiens, UniProt Q86WV6) (assay: Fluorescence Thermal Shift assay (hSTING FTS binding assay)). Details: ΔTm, STING 0.1 mg/mL, SyproOrange, 25 to 99° C.
Protocol: Fluorescence Thermal Shift Assay Compounds of the present invention were tested for binding to human STING in Fluorescence Thermal Shift assay. […] Final STING concentration was 0.1 mg/mL. Thermal unfolding was performed in Real-Time PCR QuantStudio 6 Flex System (Applied Biosystems), from 25 to 99° C., with continuous ramp mode and ramp rate 0.033° C./s. The data were analyzed using Protein Thermal Shift Software (ThermoFisher).
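Note: STING preincubated with compound for 20 min in HEPES NaCl buffer pH 7.5.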

Sequence of human STING (Q86WV6 whole entry H232R): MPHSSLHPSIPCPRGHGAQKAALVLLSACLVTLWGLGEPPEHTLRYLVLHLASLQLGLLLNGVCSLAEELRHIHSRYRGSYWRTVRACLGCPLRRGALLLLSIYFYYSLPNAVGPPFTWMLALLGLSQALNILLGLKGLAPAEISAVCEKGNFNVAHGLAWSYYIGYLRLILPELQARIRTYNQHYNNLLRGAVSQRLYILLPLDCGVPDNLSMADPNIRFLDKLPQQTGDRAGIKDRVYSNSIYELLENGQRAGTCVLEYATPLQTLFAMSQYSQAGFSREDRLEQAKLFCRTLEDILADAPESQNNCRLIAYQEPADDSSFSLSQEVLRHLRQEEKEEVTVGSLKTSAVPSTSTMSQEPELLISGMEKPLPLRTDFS

SMILES | hSTING FTS binding assay (ΔT ° C.)
Cc1ccc(N2CCC[C@H](N(Cc3ccnc(C)c3)Cc3cn(C4CC4)c4cc(N5CCC(N)C(F)(F)C5)c(F)cc4c3=O)C2)cn1 (stereo partly drawn) [Example 26, 7-(4-amino-3,3-difluoropiperidin-1-yl)-1-cyclopropyl-6-fluoro-3-({[(3S)-1-(6-methylpyridin-3-yl)piperidin-3-yl][(2-methylpyridin-4-yl)methyl]amino}methyl)-1,4-dihydroquinolin-4-one] | +++ (ΔTm≥20° C.)
Cc1ccc(N2CCC[C@H](N(Cc3ccnc(C)c3)Cc3cn(C4CC4)c4cc(N5CC(CO)C5)c(F)cc4c3=O)C2)cn1 [Example 27, 1-cyclopropyl-6-fluoro-7-[3-(hydroxymethyl)azetidin-1-yl]-3-({[(3S)-1-(6-methylpyridin-3-yl)piperidin-3-yl][(2-methylpyridin-4-yl)methyl]amino}methyl)-1,4-dihydroquinolin-4-one] | +++ (ΔTm≥20° C.)
Cc1ccc(N2CCC[C@H](N(Cc3ccnc(C)c3)Cc3cn(C4CC4)c4cc(N5CCC[C@@H](O)C5)c(F)cc4c3=O)C2)cn1.Cl [Example 28, 1-cyclopropyl-6-fluoro-7-[(3R)-3-hydroxypiperidin-1-yl]-3-({[(3S)-1-(6-methylpyridin-3-yl)piperidin-3-yl][(2-methylpyridin-4-yl)methyl]amino}methyl)-1,4-dihydroquinolin-4-one Hydrochloride] | +++ (ΔTm≥20° C.)
Cc1cc(CN(Cc2cn(C)c3cc(Br)ccc3c2=O)[C@H]2CCCN(c3ccc(N)nc3)C2)ccn1.Cl [Example 29, 3-({[(3S)-1-(6-aminopyridin-3-yl)piperidin-3-yl][(2-methylpyridin-4-yl)methyl]amino}methyl)-7-bromo-1-methyl-1,4-dihydroquinolin-4-one Hydrochloride] | +++ (ΔTm≥20° C.)
Cc1ccc(N2CCC[C@H](N(Cc3ccnc(C)c3)Cc3cn(C4CC4)c4cc(N5CCC(F)(CN)C5)c(F)cc4c3=O)C2)cn1 (stereo partly drawn) [Example 30, 7-[3-(aminomethyl)-3-fluoropyrrolidin-1-yl]-1-cyclopropyl-6-fluoro-3-({[(3S)-1-(6-methylpyridin-3-yl)piperidin-3-yl][(2-methylpyridin-4-yl)methyl]amino}methyl)-1,4-dihydroquinolin-4-one] | +++ (ΔTm≥20° C.)
Cc1ccc(N2CCC[C@H](N(Cc3ccnc(C)c3)Cc3cn(C4CC4)c4cc(N5CCC(O)CC5)c(F)cc4c3=O)C2)cn1.Cl [Example 32, 1-cyclopropyl-6-fluoro-7-(4-hydroxypiperidin-1-yl)-3-({[(3S)-1-(6-methylpyridin-3-yl)piperidin-3-yl][(2-methylpyridin-4-yl)methyl]amino}methyl)-1,4-dihydroquinolin-4-one Hydrochloride] | +++ (ΔTm≥20° C.)
CNC1CCN(c2cc3c(cc2F)c(=O)c(CN(Cc2ccnc(C)c2)[C@H]2CCCN(c4ccc(C)nc4)C2)cn3C2CC2)C1 (stereo partly drawn) [Example 33, 1-cyclopropyl-6-fluoro-7-[3-(methylamino)pyrrolidin-1-yl]-3-({[(3S)-1-(6-methylpyridin-3-yl)piperidin-3-yl][(2-methylpyridin-4-yl)methyl]amino}methyl)-1,4-dihydroquinolin-4-one] | +++ (ΔTm≥20° C.)
Cc1cc(CN(Cc2cn(C(C)C)c3ccccc3c2=O)[C@H]2CCCN(c3ccc(N)nc3)C2)ccn1.Cl [Example 34, 3-({[(3S)-1-(6-aminopyridin-3-yl)piperidin-3-yl][(2-methylpyridin-4-yl)methyl]amino}methyl)-1-(propan-2-yl)-1,4-dihydroquinolin-4-one Hydrochloride] | +++ (ΔTm≥20° C.)
Cc1cc(CN(Cc2cn(C3COC3)c3ccccc3c2=O)[C@H]2CCCN(c3ccc(N)nc3)C2)ccn1 [Example 35, 3-({[(3S)-1-(6-aminopyridin-3-yl)piperidin-3-yl][(2-methylpyridin-4-yl)methyl]amino}methyl)-1-(oxetan-3-yl)-1,4-dihydroquinolin-4-one] | +++ (ΔTm≥20° C.)
Cc1ccc(N2CCC[C@H](N(Cc3ccnc(C)c3)Cc3cn(C4CC4)c4nc(N5CC[C@@H](O)C5)c(F)cc4c3=O)C2)cn1.Cl [Example 37, 1-cyclopropyl-6-fluoro-7-[(3R)-3-hydroxypyrrolidin-1-yl]-3-({[(3S)-1-(6-methylpyridin-3-yl)piperidin-3-yl][(2-methylpyridin-4-yl)methyl]amino}methyl)-1,4-dihydro-1,8-naphthyridin-4-one Hydrochloride] | +++ (ΔTm≥20° C.)
Cc1cc(CN(Cc2cn(C(C)C)c3cc(N4CC[C@@H](O)C4)ccc3c2=O)[C@H]2CCCN(c3ccnnc3)C2)ccn1 [Example 49, 7-[(3R)-3-hydroxypyrrolidin-1-yl]-3-({[(2-methylpyridin-4-yl)methyl][(3S)-1-(pyridazin-4-yl)piperidin-3-yl]amino}methyl)-1-(propan-2-yl)-1,4-dihydroquinolin-4-one] | + (ΔTm≤10° C.)
CN[C@@H]1CCN(c2cc3c(cc2F)c(=O)c(CN(Cc2ccnc(C)c2)[C@H]2CCCN(c4ccc(C)nc4)C2)cn3C2CC2)C1.Cl [Example 55, 1-Cyclopropyl-6-fluoro-7-[(3R)-3-(methylamino)pyrrolidin-1-yl]-3-({[(3S)-1-(6-methylpyridin-3-yl)piperidin-3-yl][(2-methylpyridin-4-yl)methyl]amino}methyl)-1,4-dihydroquinolin-4-one Hydrochloride] | +++ (ΔTm≥20° C.)
CN[C@H]1CCN(c2cc3c(cc2F)c(=O)c(CN(Cc2ccnc(C)c2)[C@H]2CCCN(c4ccc(C)nc4)C2)cn3C2CC2)C1.Cl [Example 58, 1-Cyclopropyl-6-fluoro-7-[(3S)-3-(methylamino)pyrrolidin-1-yl]-3-({[(3S)-1-(6-methylpyridin-3-yl)piperidin-3-yl][(2-methylpyridin-4-yl)methyl]amino}methyl)-1,4-dihydroquinolin-4-one Hydrochloride] | +++ (ΔTm≥20° C.)
Cc1ccc(N2CCC[C@H](N(Cc3ccnc(C)c3)Cc3cn(C4CC4)c4cc(N5CCCC(C(=O)O)C5)c(F)cc4c3=O)C2)cn1 (stereo partly drawn) [Example 66, 1-[1-cyclopropyl-6-fluoro-3-({[(3S)-1-(6-methylpyridin-3-yl)piperidin-3-yl][(2-methylpyridin-4-yl)methyl]amino}methyl)-4-oxo-1,4-dihydroquinolin-7-yl]piperidine-3-carboxylic Acid] | +++ (ΔTm≥20° C.)
Cc1ccc(N2CCC[C@H](N(Cc3ccnc(C)c3)Cc3cn(C4CC4)c4cc(N5CCC(C(=O)O)CC5)c(F)cc4c3=O)C2)cn1 [Example 67, 1-[1-cyclopropyl-6-fluoro-3-({[(3S)-1-(6-methylpyridin-3-yl)piperidin-3-yl][(2-methylpyridin-4-yl)methyl]amino}methyl)-4-oxo-1,4-dihydroquinolin-7-yl]piperidine-4-carboxylic Acid] | +++ (ΔTm≥20° C.)
Cc1ccc(N2CCC[C@H](N(Cc3ccnc(C)c3)Cc3cn(C4CC4)c4cc(N5CCC6NCCC6C5)c(F)cc4c3=O)C2)cn1 (stereo partly drawn) [Example 68, 1-cyclopropyl-6-fluoro-3-({[(3S)-1-(6-methylpyridin-3-yl)piperidin-3-yl][(2-methylpyridin-4-yl)methyl]amino}methyl)-7-{octahydro-1H-pyrrolo[3,2-c]pyridin-5-yl}-1,4-dihydroquinolin-4-one] | +++ (ΔTm≥20° C.)
Cc1ccc(N2C[C@@H](F)C[C@H](N(Cc3ccnc(C)c3)Cc3cn(C4CC4)c4cc(OCCO)c(F)cc4c3=O)C2)cn1 [Example 75, 1-cyclopropyl-6-fluoro-3-({[(3S,5S)-5-fluoro-1-(6-methylpyridin-3-yl)piperidin-3-yl][(2-methylpyridin-4-yl)methyl]amino}methyl)-7-(2-hydroxyethoxy)-1,4-dihydroquinolin-4-one] | +++ (ΔTm≥20° C.)
Cc1cc(CN(Cc2cn(C3CC3)c3cc(N4CC[C@@H](O)C4)c(F)cc3c2=O)[C@H]2CCCN(c3cccnc3)C2)ccn1 [Example 78, 1-cyclopropyl-6-fluoro-7-[(3R)-3-hydroxypyrrolidin-1-yl]-3-({[(2-methylpyridin-4-yl)methyl][(3S)-1-(pyridin-3-yl)piperidin-3-yl]amino}methyl)-1,4-dihydroquinolin-4-one] | +++ (ΔTm≥20° C.)
Cc1cnc(N2C[C@@H](F)C[C@H](N(Cc3ccnc(C)c3)Cc3cn(C4CC4)c4cc(N5CCC[C@H](O)C5)c(F)cc4c3=O)C2)cn1 [Example 82, 1-cyclopropyl-6-fluoro-3-({[(3S,5S)-5-fluoro-1-(5-methylpyrazin-2-yl)piperidin-3-yl][(2-methylpyridin-4-yl)methyl]amino}methyl)-7-[(3S)-3-hydroxypiperidin-1-yl]-1,4-dihydroquinolin-4-one] | ++ (10<ΔTm<20° C.)
Cc1cc(CN(Cc2cn(C3CC3)c3cc(N4CCC[C@H](O)C4)c(F)cc3c2=O)[C@H]2CCCN(c3cccnc3)C2)ccn1.Cl [Example 86, 1-cyclopropyl-6-fluoro-7-[(3S)-3-hydroxypiperidin-1-yl]-3-({[(2-methylpyridin-4-yl)methyl][(3S)-1-(pyridin-3-yl)piperidin-3-yl]amino}methyl)-1,4-dihydroquinolin-4-one Hydrochloride] | +++ (ΔTm≥20° C.)
